According to US20130112218A1, “USE OF ELLAGIC ACID AS AN ANTI-DANDRUFF AGENT” (priority 2010, published 2013):

Key:
[1] = tested on: yeasts of the Malassezia genus; assay: Test of effectiveness in an aqueous-alcoholic gel by leave-in application; format: in vivo; details: ellagic acid 0.5% by weight in aqueous-alcoholic gel A, two applications per week, after one week of treatment, 25 individuals with dandruff, corneodisc count, placebo 29%
Experimental: The aqueous-alcoholic gel for leave-in use A according to the invention was prepared according to the following table. The amounts are indicated as percent by weight of active material (A.M.) relative to the total weight of the composition. The study was carried out on a group of 25 individuals who had scalps with dandruff displaying an excessive proliferation of yeasts of the Malassezia genus. After two weeks of neutral shampoo, the individuals were treated with gel A of the invention or with an equal amount of a placebo comparative composition (identical composition without ellagic acid), at a rate of two applications per week. The yeasts per unit surface area were counted using a corneodisc sample of squamae.

[2] = tested on: scalps with dandruff displaying an excessive proliferation of yeasts of the Malassezia genus; assay: Test of effectiveness in a shampoo; format: in vivo; details: ellagic acid 1% by weight in shampoo B, rinsed out, twice a week for four weeks; 21 individuals with dandruff
Experimental: The shampoo B according to the invention was prepared according to the following table. The amounts are indicated as percent by weight of active material (A.M.) relative to the total weight of the composition. The study was carried out on a group of 21 individuals who had scalps with dandruff displaying an excessive proliferation of yeasts of the Malassezia genus. After two weeks of neutral shampoo, the shampoo composition B according to the invention was applied to the scalp for each individual. The composition was then rinsed out with water. This anti-dandruff treatment method was repeated twice a week for four weeks.

In the case of `O=c1oc2c(O)c(O)cc3c(=O)oc4c(O)c(O)cc1c4c23` [ellagic acid, 2,3,7,8-tetrahydroxy(1)benzopyrano(5,4,3-cde)(1)benzopyran-5,10-dione], the “reduction in the number of Malassezia yeasts present on the scalp” value [1] is reported as 56% and the anti-dandruff effectiveness [2] is reported as “clear anti-dandruff effectiveness”.
